Key:
[1] = biological target: T1, human recombinant kinase full-length AKT1 E17K (Homo sapiens, UniProt P31749, E17K); assay: AKT1 E17K kinase assay (TR-FRET, Lance); format: biochemical; conditions: 0.6 nM AKT1 E17K, 50 nM Ulight-CREBtide, either 50 μM ATP or 2 mM ATP, 60 min at RT
T1 construct: Purified human recombinant kinase full-length AKT1 E17K was expressed in insect cells; made in house; host or cells: insect cells
Method: AKT1 E17K kinase assay: Inhibitory effects of compounds on AKT1 E17K were undertaken in a 10-pt dose response kinase activity assay measuring phospho-peptide product formation based on TR-FRET signal as described in the following paragraph.
(§1) Purified human recombinant kinase full-length AKT1 E17K was expressed in insect cells and activated in vitro by PDPK1. Ulight™-CREBtide (PerkinElmer, catalog number TRF0107) was used as the peptide substrate. The reaction buffer consisted of 50 mM HEPES pH 7.5, 10 mM MgCl2, 0.01% Triton X-100, 0.01% BSA, 2 mM DTT, 0.6 nM AKT1 E17K, 50 nM Ulight™-CREBtide and either 50 μM ATP or 2 mM ATP. The compound solution was prepared as 10 mM DMSO stock. For the assay, a 1.3 serial dilution 10-pt dose response of test compounds, in duplicate, for each concentration were dispensed into a 384-well plate (Corning, catalog number 4513). Final DMSO concentration in the assay was 1%. The enzyme mixture (5 μL, 1.2 nM) were added and the mixture was incubated for 15 min at RT prior to the start of the kinase reaction by the addition of 5 μL substrate mixture (100 nM Ulight™-CREBtide). The reaction was stopped after 60 min of incubation at RT by the addition of 10 μL of Detection Mix (PerkinElmer, #CR97-100) consisting of Europium-anti-phospho-CREB (Ser133) (Perkin Elmer, catalog number TRF0200). Incubation with the detection mix for a further 60 min allowed binding of antibody to the phospho-Ulight™ CREBtide. The fluorescence emissions at 620 nm and 665 nm after excitation at 350 nm was measured using Envision reader. The ratio of the emissions at 665 nm and at 620 nm provided the measure for the amount of phosphorylated CREBtide product of AKT1 E17K kinase activity. To determine the IC50 values, the data was normalized (enzyme reaction without inhibitor=0% inhibition, all other assay components but no enzyme=100% inhibition) and IC50 values were calculated by a 4-parameter fit using an in-house developed protocol.
Table 9 assigns each compound a code for potency in the AKT1 E 17K kinase assay: A, B, or C. According to the code, A represents an IC50 value <500 nM; B represents an IC50 value from ≥500 nM to <2000 nM; and C represents an IC50 value ≥2000 nM.

[2] = biological target: T2, human recombinant kinase full-length wildtype AKT1 (Homo sapiens, UniProt P31749); assay: AKT1 kinase assay (wildtype, TR-FRET, Lance); format: biochemical; conditions: 0.6 nM wildtype AKT1, 50 nM Ulight-CREBtide, either 50 μM ATP or 2 mM ATP, 60 min at RT
T2 construct: Purified human recombinant kinase full-length wildtype AKT1 was expressed in insect cells; made in house; host or cells: insect cells
Method: AKT1 kinase assay: Inhibitory effects of compounds on wildtype AKT1 were undertaken in a 10-pt dose response kinase activity assay measuring phospho-peptide product formation based on TR-FRET signal as described in the following paragraph.
as §1, with “full-length wildtype” for “full-length”, “AKT1” for “AKT1 E17K”, “AKT1,50” for “AKT1 E17K, 50”, “1:3” for “1.3”
The symbol +++ represents an IC50 value <20 μM; the symbol ++ represents an IC50 value from ≥20 μM to 80 μM.

T1 sequence (P31749 whole entry E17K): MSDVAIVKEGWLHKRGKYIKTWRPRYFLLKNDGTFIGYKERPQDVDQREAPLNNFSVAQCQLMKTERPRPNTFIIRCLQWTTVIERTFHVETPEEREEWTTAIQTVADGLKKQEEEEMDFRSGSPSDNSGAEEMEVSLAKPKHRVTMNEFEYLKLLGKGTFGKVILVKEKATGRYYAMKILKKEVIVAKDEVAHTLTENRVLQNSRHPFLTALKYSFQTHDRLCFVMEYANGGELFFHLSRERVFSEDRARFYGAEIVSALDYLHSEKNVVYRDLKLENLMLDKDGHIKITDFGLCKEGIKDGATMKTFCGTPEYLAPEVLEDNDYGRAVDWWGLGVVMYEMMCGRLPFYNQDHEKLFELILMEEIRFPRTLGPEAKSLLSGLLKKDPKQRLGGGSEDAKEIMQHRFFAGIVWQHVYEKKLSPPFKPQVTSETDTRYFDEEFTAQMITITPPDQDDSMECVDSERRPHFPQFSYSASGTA
T2 sequence (P31749 whole entry): as the sequence (P31749 whole entry E17K) above, with K17E counted along it

Compound	IC50 [1] [nM]	IC50 [2] [nM]
C[C@]1(C(=O)O)CC[C@H](CN2CC(c3ccc(-n4c(-c5cccnc5N)nc5ccc(-c6ccccc6)nc54)cc3)C2)CC1 [Compound I-138, (1r,4r)-4-((3-(4-(2-(2-aminopyridin-3-yl)-5-phenyl-3H-imidazo[4,5-b]pyridin-3-yl)phenyl)azetidin-1-yl)methyl)-1-methylcyclohexane-1-carboxylic acid]	< 500	< 20000
CC1(C)C[C@H](CN2CCC(c3ccc(-n4c(-c5cccnc5N)nc5ccc(-c6ccccc6)nc54)cc3)CC2)CC(C)(C)[C@H]1C(=O)O [Compound I-196]	≥ 2000	< 20000
Nc1ncccc1-c1nc2ccc(-c3ccccc3)nc2n1-c1ccc(C2CN(C[C@@H]3CC4CC3CC4C(=O)O)C2)cc1 (some centres unmarked) [Compound I-150]	< 500	< 20000
CC(c1ccc(-n2c(-c3cccnc3N)nc3ccc(-c4ccccc4)nc32)cc1)N1CCCC(C(=O)O)C1 (centres unmarked) [Compound I-83, 1-(1-(4-(2-(2-aminopyridin-3-yl)-5-phenyl-3H-imidazo[4,5-b]pyridin-3-yl)phenyl)ethyl)piperidine-3-carboxylic acid]	≥ 2000	< 20000
Nc1ncccc1-c1nc2ccc(-c3ccccc3)nc2n1-c1ccc(NC(=O)N2CCC(C(=O)O)C2)cc1 (centres unmarked) [Compound I-52, 1-[[4-[2-(2-amino-3-pyridyl)-5-phenyl-imidazo[4,5-b]pyridin-3-yl]phenyl]carbamoyl]pyrrolidine-3-carboxylic acid]	< 500	< 20000
CC(C)(C(=O)O)C1CCN(c2ccc(-n3c(-c4cccnc4N)nc4ccc(-c5ccccc5)nc43)cn2)C1 (centres unmarked) [Compound I-39, 2-(1-(5-(2-(2-aminopyridin-3-yl)-5-phenyl-3H-imidazo[4,5-b]pyridin-3-yl)pyridin-2-yl)pyrrolidin-3-yl)-2-methylpropanoic acid]	≥ 2000	< 20000
Nc1ncccc1-c1nc2ccc(-c3ccccc3)nc2n1-c1ccc(CN(CC(F)(F)F)[C@H]2CC[C@@H](C(=O)O)CC2)cc1 (single isomer, unassigned) [Compound I-189, (1s,4s)-4-((4-(2-(2-aminopyridin-3-yl)-5-phenyl-3H-imidazo[4,5-b]pyridin-3-yl)benzyl)(2,2,2-trifluoroethyl)amino)cyclohexane-1-carboxylic acid]	≥ 2000	< 20000

Further lines, results first:

IC50 [1] [nM]	IC50 [2] [nM]	Compound
500 to 2000	< 20000	Nc1ncccc1-c1nc2ccc(-c3ccccc3)nc2n1-c1ccc(NC(=O)C2CCC(C(=O)O)CC2)cc1F (centres unmarked) [Compound I-5, 4-((4-(2-(2-aminopyridin-3-yl)-5-phenyl-3H-imidazo[4,5-b]pyridin-3-yl)-3-fluorophenyl)carbamoyl)cyclohexane-1-carboxylic acid]
500 to 2000	< 20000	Nc1ncccc1-c1nc2ccc(-c3ccccc3)nc2n1-c1ccc(CNC2CCC(C(=O)O)CC2)cc1 (centres unmarked) [Compound I-31, 4-((4-(2-(2-aminopyridin-3-yl)-5-phenyl-3H-imidazo[4,5-b]pyridin-3-yl)benzyl)amino)cyclohexane-1-carboxylic acid]
500 to 2000	< 20000	Cc1nc(NC(=O)[C@H]2CC[C@H](C(=O)O)CC2)ccc1-n1c(-c2cccnc2N)nc2ccc(-c3ccc(F)cc3)nc21 [Compound I-215]
≥ 2000	< 20000	Nc1ncccc1-c1nc2ccc(N3CCOCC3)cc2n1-c1ccc(NC(=O)[C@H]2CC[C@H](C(=O)O)CC2)cc1 [Compound I-33, (1r,4r)-4-((4-(2-(2-aminopyridin-3-yl)-6-morpholino-1H-benzo[d]imidazol-1-yl)phenyl)carbamoyl)cyclohexane-1-carboxylic acid]
≥ 2000	< 20000	Cc1cc(CN(C)[C@H]2CC[C@H](C(=O)O)CC2)ccc1-n1c(-c2cccnc2N)nc2ccc(-c3ccccc3)nc21 [Compound I-178]
500 to 2000	< 20000	Cc1nc(NC(=O)[C@H]2CC[C@H](C(=O)O)CC2)ccc1-n1c(-c2cccnc2N)nc2ccc(-c3c(F)cccc3F)nc21 [Compound I-217]

Reference: US20260200920A1, “SUBSTITUTED AMINOPYRIDINE COMPOUNDS FOR USE AS AKT1 INHIBITORS” (Atavistik Bio, Inc., priority 2023, published 2026)
